Test results published in patent US20110091945A1, “METHODS OF INCREASING BIOMASS PRODUCTIVITY, LIPID INDUCTION, AND CONTROLLING METABOLITES IN ALGAE FOR PRODUCTION OF BIOFUELS USING BIOCHEMICAL STIMULANTS” (priority 2009, published 2011).
Like-named read-outs stand apart in the source and are kept apart here.

Columns and labels:
[1] = tested on: Chlorella sorokiniana; test: Malathion twelve day growth study: chlorophyll a and chl a/b ratio; assay type: cell-based, Chlorella sorokiniana (UTEX 2805)
Procedure: • Analysis of growth parameters: Chlorophyll a was estimated following the method of Porra et al., (1989) Biochem. Biophys. Acta 975, 384-394. Biomass estimations were performed by filtering the cultures through pre-dried and weighed Whatman GF/C glass fiber filters (4.7 cm diameter; 1.2 μm pore size). After washing with 0.65 M ammonium formate, filters were then dried at 60° C. overnight and cooled in a desiccant pouch before re-weighing. Specific growth rates, divisions per day, and generation times were estimated based upon biomass data for days 6 to 9 and days 9 to 12 using the following equations:
(§1) • Test strain: Chlorella sorokiniana (UTEX 2805) was obtained from UTEX Culture Collections and maintained in BG11 medium (Stanier et al., (1971) Bacteria Rev. 35: 171-205, incorporated herein in its entirety). The pH of culture medium was adjusted to 7.5±0.2 before inoculation and the alga was maintained in a temperature controlled growth chamber at 25±1° C. and 100±10 μmol m^−2 s^−1 light intensity with 12/12 h L/D cycle provided by cool white fluorescent (6500 K) T-8 bulbs. • Pesticide: A twelve day time-scale growth study was conducted to evaluate the effect of pesticide toxicity on algal growth and metabolism. The pesticide malathion (Spectracide, 50% v/v) was used and added to fresh BG11 medium to obtain final concentrations of 70, 140, 280 and 560 mg of malathion L^−1 for the treatments. […] After sterilization, C. sorokiniana was added as inoculum to obtain an initial biomass concentration of 0.075 g L^−1 in all the treatments in triplicates. The cultures were incubated in the growth chamber as explained above. For each sampling period, three randomly chosen flasks of each treatment were removed and then refrigerated at 4° C. until further analysis.

[2] = tested on: algae; conditions: applied alone at half solubility in water (75 mg L^−1); cited from earlier work
[3] = tested on: Chlorogloea fritschii; conditions: cited from earlier work
[4] = tested on: Nostoc calcicola; conditions: cited from earlier work
[5] = tested on: Stigeoclonium, Tribonema, and Vaucheria; conditions: 1 μg L^−1; cited from earlier work
[6] = tested on: Anabaena; conditions: cited from earlier work; for inhibition: 500 mg malathion L^−1
[7] = tested on: Chlorella sorokiniana; test: Malathion growth study: chlorophyll fluorescence kinetics by PAM; assay type: cell-based, Chlorella sorokiniana (UTEX 2805); conditions: day 12; for Fv/Fm (maximum photosynthetic efficiency of PSII): control 0.672
Procedure: A 2% neutral lipid corn standard supplied by Ankom was used as an analytical standard. Carbon, hydrogen, nitrogen, and sulfur percentages in the biomass were estimated using a LECO CHNS932 elemental analyzer. • Chlorophyll fluorescence kinetics by PAM: The Pulse-Amplitude-Modulation Fluorometer (Mini-PAM, WALZ GmBH, Effeltrich, Germany) used for chlorophyll a fluorescence measurements were performed in real-time using the mini-PAM's internal halogen light as the actinic light source for fluorescence measurements of maximum photosynthetic yield, effective photosynthetic yield (PSII), electron transfer rate (ETR), photosynthetic quenching (qP) and non photochemical quenching (NPQ). The algal samples were dark adapted for one hour prior to the analysis. A small quantity (2.5 mL) of dark adopted sample in a 10 mm path length cuvette was placed in a dark chamber. The PAM fluorometer was connected to the sample via a fiber optic bundle. After stabilization of the auto fluorescence, the probing light beam was turned on and the baseline fluorescence (Fo) was recorded. A single saturating flash (1 s, 8,000 μmol m^−2 s^−1) was then applied to reach maximal fluorescence (Fm). The maximum photosynthetic efficiency of PSII was estimated as in the following equation for the dark adopted culture:
The induction kinetics were initiated by turning on the actinic light source (100 μmol m^−2 s^−1). During the induction curve under actinic light (AL) exposure, saturating light pulses (1 s; 8,000 μmol m^−2 s^−1) were given every 20 seconds to determine the effective quantum yield (Φ PSII), electron transfer rates (ETR), photochemical (qP) and non-photochemical (NPQ) quenching. The qP value was determined by the PAM data analysis software, which uses Fo as opposed to Fo′ in the equation providing a estimate of qP rather than an absolute measurement using far-red light exposure. These tests were done in duplicates.
as §1

[8] = tested on: Chlorella pyrenoidosa; conditions: 100 mg of malathion L^−1; cited from earlier work

## CCOC(=O)CC(SP(=S)(OC)OC)C(=O)OCC (stereo not drawn) [malathion, 2-(dimethoxyphosphinothioylthio)butanedioic acid diethyl ester]
[1]; 70 mg malathion L^−1, day 0
  ratio of chl a to chl b: approximately 0.85
[1]; 70 mg malathion L^−1, day 3
  inhibition in chl a: 45%
[1]; 70 mg malathion L^−1, day 6
  inhibition in chl a: 49%
[1]; 70 mg malathion L^−1, day 9
  inhibition in chl a: 51%
[1]; 70 mg malathion L^−1, day 12
  inhibition in chl a: 26%
  ratio of chl a to chl b: approximately 0.90
[1]; 140 mg malathion L^−1, day 0
  ratio of chl a to chl b: approximately 0.85
[1]; 140 mg malathion L^−1, day 12
  ratio of chl a to chl b: approximately 0.90
[1]; 280 mg malathion L^−1
  decrease of chl a/b ratio: approximately 100%
[2]
  toxicity to algae, in words: toxic to algae
[3]
  concentration that permanently suppressed the growth: 200 mg/L
[4]
  concentration above which growth was reduced: above 500 mg L^−1
[5]
  inhibition of chlorophyll production: 100%
[6]; 500 mg L^−1
  resistance to malathion, in words: highly resistant
[6]; day 5
  inhibition: 64%
[6]; day 30
  inhibition: 15%
[7]; 70 mg malathion L^−1
  effective photosynthetic yield, higher over the control: about 1.2 times
  electron transfer rate, higher over the control: about 1.2 times
  non-photochemical quenching (NPQ) versus control, in words: comparable with the control
  photochemical quenching, higher over the control: about 1.2 times
  Fv/Fm (maximum photosynthetic efficiency of PSII): 0.671
[7]; 140 mg malathion L^−1
  effective photosynthetic yield, higher over the control: about 1.2 times
  electron transfer rate, higher over the control: about 1.2 times
  non-photochemical quenching (NPQ), less than the control: 18%
  photochemical quenching, higher over the control: about 1.2 times
  Fv/Fm (maximum photosynthetic efficiency of PSII): 0.641
[8]
  effect on growth, in words: very little effect on the growth
